Columns and labels:
[1] = system: C. jejuni P5/4; test: Kirby-Bauer disk diffusion; format: cell-based, Campylobacter jejuni; details: 15 μg per disk
Method: An initial screening of the antibacterial activity of the compounds was performed by the Kirby-Bauer disk diffusion method, as recommended by the Clinical and Laboratory Standards Institute (CLSI). Briefly, sterile 6 mm blank paper disks (Oxoid, Basingstoke, England) impregnated with 15 μg of each compound were placed on inoculated MH agar plates. A blank disk with dimethylsulfoxide (DMSO) was used as a negative control. MH inoculated plates were incubated for 18-20 h at 37 degrees C. At the end of incubation, the inhibition halos where measured. The MIC was used to determine the antibacterial activity of each compound, in accordance with the recommendations of the CLSI. Two-fold serial dilutions of the compounds were prepared in Mueller-Hinton Broth 2 (MHB2—Sigma-Aldrich, St. Louis, MO, USA) within the concentration range of 0.062-64 μg/mL. CTX ranging between 0.031-16 μg/mL was used as a control. Sterility and growth controls were included in each assay. Purity checks and colony counts of the inoculum suspensions were also performed in order to ensure that the final inoculum density closely approximates the intended number (5×10^5 CFU/mL). The MIC was determined as the lowest concentration of compound that inhibited growth of the bacteria. The MBC was assessed by spreading 10 μL of culture collected from wells showing no visible growth on MH agar plates. […]

[2] = system: E. coli ATCC 25922; test: Time-kill kinetics; format: cell-based, Escherichia coli
Method: The present disclosure relates to antibacterial mechanism of action of the compound 1 herein disclosed. In an embodiment, the evaluation of time-kill kinetics was performed as follows. Time-kill kinetics of compound 1 were evaluated for E. coli ATCC 25922, allowing the confirmation of its bactericidal effect. This is usually determined when ≥99.9% killing of the initial inoculum occurs and is determined by a 3-log10-unit decrease in CFU/mL.
The effect of compound 1 concentrations ranging between 64 and 8 μg/mL was evaluated. The bacterial inoculum was prepared by suspending colonies from overnight cultures (grown in MHA) in CAMHB, and an aliquot of this suspension was added to each tube of CAMHB alone (control) or CAMHB plus an appropriate amount of compound 1, to give an inoculum of approximately 5×10^5 CFU/mL, in a final volume of 10 mL. Tubes were incubated at 37 degrees C. in a water bath with shaking. At predetermined time points (30 min, 1, 1.5, 2, 3, 4, 6, 8, 12, and 24 h), 100 μL aliquots were aseptically removed from each tube, after vortexing, serially diluted in buffered peptone water (Biokar Diagnostics, Allone, Beauvais, France), if necessary, and spread on MHA. Colony counts were determined following overnight incubation at 37 degrees C. and log10 CFU/mL was plotted against time. Three independent experiments were performed.

[3] = system: yeasts and filamentous fungi, including dermatophytes; test: Antifungal activity, whole strain panel; format: cell-based; details: all microorganisms tested (Table 2)
Method: The antifungal activity of compound 1 was evaluated for a wide range of fungal species, covering yeasts and filamentous fungi, including dermatophytes. […] This antimicrobial effect was fungicidal, with minimal lethal concentrations (MLC) being equal to, or one or two-fold higher than the respective MIC. Twenty-three fungal strains were used in this study, including reference strains and clinical isolates of yeasts and filamentous fungi. Yeast strains included reference strains (ATCC—American Type Culture Collection and CECT—Colección Española de Cultivos Tipo) and clinical isolates: C. albicans ATCC 10231, Candida krusei ATCC 6258, C. albicans H37, C. albicans FF172, C. albicans FF176, C. albicans DSY294, C. albicans DSY296, C. glabrata DSY562, C. glabrata DSY565 and Cryptococcus neoformans CECT 1078. […]
Antifungal activity was evaluated by determining the MIC of compound 1 by the broth microdilution method, according to CLSI guidelines (reference documents M27-A3 for yeasts and M38-A2 for filamentous fungi). […] The minimal lethal concentration (MLC) was determined by spreading 20 μL of culture collected from wells showing no visible growth on SDA plates. The MLC was determined as the lowest concentration showing complete growth inhibition after 48 h at 35 degrees C., 48 h at 25 degrees C. […]

[4] = system: marine biofilm-forming bacterial strains; details: cited from earlier work

## C[C@H](CCC(=O)NCCN)[C@H]1CC[C@H]2[C@@H]3CC[C@@H]4C[C@H](O)CC[C@]4(C)[C@H]3C[C@H](O)[C@]12C [Compound 1, (R)—N-(2-aminoethyl)-4-((3R,5R,8R,9S,10S,12S,13R,14S,17R)-3,12-dihydroxy-10,13-dimethylhexadecahydro-1H-cyclopenta[a]phenanthren-17-yl) pentanamida]
[1]
  Disk diffusion: 8 mm
[2]; 64 μg/mL (2×MIC)
  exposure time to bactericidal activity (≥99.9% killing): approximately 1 h
[2]; 64 μg/mL, after 30 min of exposure
  decrease in CFU/mL: 2 log10-unit
[2]; 64-8 μg/mL
  type of killing (in words): concentration-dependent killing
[3]
  spectrum of antifungal activity (in words): active against all microorganisms tested
[4]
  activity against growth of marine biofilm-forming bacterial strains (in words): active

— patent US20250002450A1, “CATIONIC STEROID COMPOUNDS, METHOD OF OBTAINING THEREOF, FORMULATIONS COMPRISING THEREOF AND THEIR USES” (UNIVERSIDADE DO PORTO, priority 2021, published 2025)
